In article PMC6150792 (Pain, 2018):
Several values for one entry are separate records, joined by “and”; a condition that tells them apart may be missing. Equal entries are not always repeated. Where two headings read alike, the source gives them in different places. Ends that are not written are not given here.

Legend:
[1] = tested on: presynaptic N-type voltage-gated calcium channels; details: ref [66]; cited from earlier work
[2] = tested on: CRMP2 residue S522 phosphorylation by Cdk5; details: ref [66]; cited from earlier work
[3] = tested on: model of postoperative, neuropathic, pain, and cephalic pain; details: ref [63], [65]; cited from earlier work
[4] = tested on: cytosolic Na+ in cultured DRG neurons; experiment: Sodium fluorescence imaging; assay type: cell-based, rat
[5] = tested on: SUMOylation; details: cited from earlier work
[6] = tested on: naïve male SD rats
[7] = tested on: humans; details: current clinically used medication; no reference given; cited from earlier work
[8] = tested on: NaV1.7; details: CAD cells; ref [20]; [21]; cited from earlier work
[9] = molecular target: recombinant human CRMP2-His (collapsin response mediator protein 2) (human) (UniProt Q16555); experiment: AlphaScreen or HTRF
[10] = molecular target: recombinant human CRMP2-His (collapsin response mediator protein 2) (human) (UniProt Q16555); experiment: MST
[11] = molecular target: recombinant human CRMP2-His (collapsin response mediator protein 2) (human) (UniProt Q16555); experiment: MST; remark: listed apart in the source
[12] = molecular target: recombinant human CRMP2-His (collapsin response mediator protein 2) (human) (UniProt Q16555); experiment: MST; remark: listed apart in the source
[13] = molecular target: recombinant human CRMP2-His (collapsin response mediator protein 2) (human) (UniProt Q16555); experiment: MST; remark: listed apart in the source
[14] = molecular target: CRMP2; experiment: Microscale thermophoresis; design: species or system human; details: read-out: apparent Kd, Ubc9 binding to CRMP2; MST; Ubc9-GST 0.003-100 μM; NT-647 labeled CRMP2; PBS-T (0.05% Tween-20), room temperature, 10 min; no cofactor; mean ± SEM, n=3
[15] = molecular target: Ubc9-CRMP2 interaction (Homo sapiens, UniProt P63279); experiment: ALPHA assay, Ubc9-GST binding to CRMP2-His and its disruption; details: binding stable over at least this window
[16] = molecular target: Ubc9 (Homo sapiens, UniProt P63279); experiment: MST, t-CSM binding to NT-647 labeled Ubc9
[17] = tested on: SNI rats; details: rat, in vivo

Q: What does the source list for `COC[C@H](NC(C)=O)C(=O)NCc1ccccc1` [(S)-lacosamide]?
A: calcium influx [1]: decrease of calcium influx; CRMP2 phosphorylation by Cdk5 [2]: inhibiting phosphorylation by Cdk5; thermal hypersensitivity and mechanical allodynia [3]: mitigation of thermal hypersensitivity and mechanical allodynia

Q: Which “effect on [Na+]c of ouabain alone” value ([4]; ouabain 1 mM alone, SBFI) does the source give for `C[C@@H]1O[C@@H](O[C@H]2C[C@@H](O)[C@]3(CO)[C@H]4[C@H](O)C[C@]5(C)[C@@H](C6=CC(=O)OC6)CC[C@]5(O)[C@@H]4CC[C@]3(O)C2)[C@H](O)[C@H](O)[C@H]1O` [Ouabain] here?
A: increase in [Na^+]c

Q: Which “ouabain-induced increase in [Na+]c” value [4] does the source give for `NC1=N[C@H](O)[C@H]2[C@H]3O[C@]4(O)O[C@@H]([C@@H](O)[C@@]2(N1)[C@@H]4O)[C@]3(O)CO` [TTX, tetrodotoxin] here?
A: inhibited

Q: For `C[C@H]1Oc2cc3c(-c4c(O)cc(O)c5c(O)c6c(cc45)O[C@H](C)[C@@H](C)C6=O)c(O)cc(O)c3c(O)c2C(=O)[C@@H]1C` [chaetochromin A], which “inhibition of SUMOylation” value ([5]; ref [35]) is on record?
A: inhibitors of SUMOylation

Q: Which results are given for `NCC1(CC(=O)O)CCCCC1` [gabapentin]?
A: ability to remain on the rotating rod ([6]; gabapentin, naïve rats, data not shown): decrease in the ability of naïve rats to remain on the rotating rod; sedation in humans [7]: severe sedation in humans

Q: Which “inhibition of SUMOylation” value ([5]; ref [28]) does the source give for `C[C@@H]1O[C@@H](O[C@H]2[C@H](O)C[C@H](c3ccc4c(c3O)C(=O)C3=C(C4=O)[C@@]4(O[C@H]5CC[C@H](O)[C@H](C)O5)C(=O)C[C@](C)(O)C[C@@]4(O)C=C3)O[C@@H]2C)CC[C@@H]1O[C@H]1C[C@@H](O)[C@H](O)[C@@H](C)O1` [kerriamycin B] here?
A: inhibitors of SUMOylation

Q: For `COC(=CC(=O)O)C1c2cc3ccc(-c4ccc5cc6c(c(O)c5c4O)C(=O)CC(C)(O)C6C(=CC(=O)O)OC)c(O)c3c(O)c2C(=O)CC1(C)O` (stereo not shown) [spectomycin B1], which “inhibition of SUMOylation” value ([5]; ref [35]) is on record?
A: inhibitors of SUMOylation

Q: Which “inhibition of SUMOylation” value ([5]; ref [35]) does the source give for `COC1=C(c2c(OC)cc3cc4c(c(O)c3c2O)C(=O)O[C@H](C)C4)C(=O)c2c(cc3c(c2O)C(=O)O[C@H](C)C3)C1=O` [viomellein] here?
A: inhibitors of SUMOylation

Q: With Huwentoxin-IV as the compound, how does the “contribution of NaV1.7 to total sodium currents by isoform-specific blockade” value [8] read?
A: ~ 80%

Q: What does the source list for “Ubc9-GST fusion protein (E2 SUMO-conjugating enzyme Ubc9) (from UniProt P63279 1-158)”?
A: Kd [9]: 0.8 µM; Kd [10]: 7.6 µM; Kd [11]: 12.2 µM; other [11]: 80 µM and 137 µM; Kd [12]: 26 µM; Kd [13]: 25.5 µM

Q: With “Ubc9: E2 SUMO-conjugating enzyme, recombinant Ubc9-GST fusion protein” as the compound, how does the Kd [14] read?
A: 12.2 ± 2.7 µM

Q: And the “stability of Ubc9-CRMP2 binding signal” value [15]?
A: ≥ 18 h

Q: Which results are given for YGRKKRRQRRRGKMDENQ [t-CSM]?
A: Kd [16]: 0.4 ± 0.1 µM; motor performance in SNI rats [17]: did not affect motor performance at any time point; motor impairment or sedation ([6]; rat, in vivo): no motor impairment or sedation; time on rotarod ([6]; rat, in vivo): 180 ± 0 s

Q: With ginkgolic acid as the compound, how does the “inhibition of SUMOylation” value ([5]; ref [27]) read?
A: inhibitors of SUMOylation
